Data on 69 compounds can be found in paper PMC9959553, “Promising Antifungal Molecules against Mucormycosis Agents Identified from Pandemic Response Box®: In Vitro and In Silico Analyses” (Journal of Fungi, 2023).

The subject of the assay is R. oryzae UCP1295. Briefly: Screening of the Pandemic Response Box library at 5 µM. Type of assay: cell-based, Rhizopus oryzae. Particulars: 48 h, Table S1, mean of the four values. The method, then: Rhizopus oryzae UCP is the most prevalent Mucorales species in human infections and was used as a reference strain to screen the Pandemic Response Box® library. Screening was performed according to Rollin-Pinheiro and colleagues. Each compound was diluted in RPMI 1640 medium (Sigma Chemical Co., St. Louis, MO, USA), supplemented with 2% glucose and buffered with 3-(N-morpholino) propanesulfonic acid (MOPS) (Sigma Chemical Co., St. Louis, MO, USA) (0.165 mol/L, pH 7.2, from here on referred to as ‘supplemented RPMI’) to reach 5 μM in 96-well microtiter plates. Posaconazole (5 μM) and supplemented RPMI containing 1% DMSO were used as controls (both from Sigma Chemical Co., St. Louis, MO, USA). Conidia (2 × 10^5/mL) were added and incubated for 48 h at 37 °C in a 5% CO2 atmosphere. […] An inhibition of at least 60% was defined as the cut-off to select the promising drugs with antifungal activity against the Rhizopus species.
Consider `CC(C)(C)c1cc(CCC(=O)N2CCC2)cc(C(C)(C)C)c1O` [MMV1229204], for which the “% of growth inhibition, Mean” value is recorded as -11.2%.
Then `Fc1ccc2c(/C=C/c3nnn[nH]3)c[nH]c2c1` [MMV1578563], with -0.5%.
Then `COc1cc(Cc2cc(N)nc(N)n2)cc(OC)c1OC` [MMV1579846], with -11.6%.
Then `CC(=O)N[C@H](C)C(=O)N[C@H](Cc1ccccc1)C(=O)O` [MMV1580845], with -37.6%; and `O=C(Nc1nnc(-c2ccccc2)o1)c1ccc(F)cc1` [MMV1578578], with -32.9%.
Take `CCc1ccc(C2CC(C(F)(F)F)n3ncc(C(=O)NCc4ccc(OC)cc4)c3N2)cc1` (stereo not drawn) [MMV831201]: the “% of growth inhibition, Mean” value was -4.6%.
With `COc1ccc(C[C@@H](C)[C@@H](C)Cc2ccc(OC)c(OC)c2)cc1OC` [MMV1581036], the “% of growth inhibition, Mean” value is recorded as -8.8%.
Then `O=C1C=C(c2ccccc2)S(=O)(=O)c2ccccc21` [MMV1006203], with -8.8%.
Then `CCCCc1ccc(-c2nc(C)c(C(=O)OC)s2)cc1` [MMV1634392], with -3.4%; and `CC(=N)N1CC[C@H](SC2=C(C(=O)O)N3C(=O)[C@@H]([C@@H](C)O)[C@H]3C2)C1` [MMV1582382], with -12.0%.
Then `COc1ccc(NC(=O)CC2Sc3ncnn3C2=O)cc1` (stereo not drawn) [MMV1483032], with -13.1%; and `CCOC(=O)Nc1cc(NC(C)CC(C)CN(CC)CC)c2nc(-c3ccccc3)c(-c3ccccc3)nc2n1` (stereo not drawn) [MMV1633967], with -28.6%; and `Cl.NC1(C(=O)O)CCP(=O)(O)CC1` (stereo not drawn) [MMV1593538], with 0.4%.
For `C[N+]1(C)CCCC(OC(=O)C(O)(c2ccccc2)c2ccccc2)C1` (stereo not drawn) [MMV002676], the “% of growth inhibition, Mean” value is -16.3%.
Take `Cn1c2ccccc2c(=O)c2c(O)cccc21` [MMV1580500]: the “% of growth inhibition, Mean” value is reported as -3.0%.
Then `CSc1ccc2c(c1)C(N1CCN(C)CC1)Cc1ccccc1S2` (stereo not drawn) [MMV002505], with 8.0%.
Then `CC(C)Oc1cccc(NC(=O)c2ccccc2C(F)(F)F)c1` [MMV1009286], with -12.9%; and `CCOC(=O)/C=C/[C@H](C[C@@H]1CCNC1=O)NC(=O)[C@H](CC)n1cccc(NC(=O)c2cc(C)on2)c1=O` [MMV1782112], with -11.8%.
Then `Nc1nc(N)c2c(Sc3ccccc3)cccc2n1` [MMV021759], with -3.3%; and `Cn1cc(NC(=O)c2cc(NC(=O)c3ccc(/C=C/c4cnc5ccccc5c4)cc3)cn2C)cc1C(=O)NCCN1CCOCC1` [MMV1634391], with -17.4%.
Regarding `Cc1cc(C2CCCCC2)n(O)c(=O)c1` [MMV002731], the “% of growth inhibition, Mean” value is given as -13.0%.
Then `Cc1cccc(C)c1C(=O)Nc1nc(-c2ccccn2)cc2ccccc12` [MMV1581558], with 53.3%; and `COC1CC2CCC(C)C(O)(O2)C(=O)C(=O)N2CCCCC2C(=O)OC(C(C)CC2CCC(OCCO)C(OC)C2)CC(=O)C(C)/C=C(\C)C(O)C(OC)C(=O)C(C)CC(C)/C=C/C=C/C=C/1C` (stereo not drawn) [MMV639951], with -2.4%; and `NC(=O)C(c1ccccc1)(c1ccccc1)[C@H]1CCCN(CCc2ccc3c(c2)CCO3)C1` [MMV1782412], with -1.5%.
Then `O=C(NCc1ccc(F)cc1)c1c(O)c2ncccc2[nH]c1=O` [MMV1782097], with 3.9%; and `Nc1nc(F)nc2c1ncn2[C@@H]1O[C@H](CO)[C@@H](O)[C@@H]1O` [MMV637413], with -6.9%; and `O=C(Nc1nnc(-c2ccc(Cl)cc2)o1)c1nc2ccccc2s1` [MMV102833], with 1.7%.
Then `CC(C)CCN1C(=O)C(C2=NS(=O)(=O)c3cc(NS(C)(=O)=O)ccc3N2)=C(O)[C@@H]2[C@H]3CC[C@H](C3)[C@@H]21` [MMV1782220], with 6.0%; and `Cc1[nH]c2ccccc2c1CC(=O)N[C@@H](Cc1ccccc1)C(=O)N(C)c1ccccc1` [MMV1580798], with -2.6%; and `Nc1ccc2oc(=O)ccc2c1I` [MMV1581378], with -3.7%.
For `COc1cc(C)c2c(Oc3cccc(C(F)(F)F)c3)c(OC)cc(NC(C)CCCN)c2n1.O=C(O)CCC(=O)O` (stereo not drawn) [MMV000043], the “% of growth inhibition, Mean” value is on record as -36.7%.
For `CNc1nc(=O)[nH]cc1F` [MMV1782388], the “% of growth inhibition, Mean” value was -27.5%.
Then `CCc1nc2ccccn2c1C(=O)NCc1ccccc1` [MMV1663457], with -0.4%; and `CCc1cc(Cc2cnc(N)nc2N)cc2c1N(C)CCC2C` (stereo not drawn) [MMV1582490], with -3.0%; and `Cc1c[nH]c(=O)nc1NCc1ccccc1` [MMV1582489], with -18.8%.
Then `CCCC(=O)OCCc1ccccc1` [MMV1578899], with -2.6%.
Then `O=c1oc2ccc(Br)cc2cc1CSc1ncc[nH]1` [MMV1782105], with -13.4%; and `Nc1c(C(=O)NCc2ccco2)c2nc3ccccc3nc2n1CCN1CCCCC1` [MMV099714], with -2.7%; and `Cc1c(OCC(F)(F)F)ccnc1C[S+]([O-])c1nc2ccccc2[nH]1` (stereo not drawn) [MMV001438], with -13.2%.
Take `CC[C@@]1(O)C(=O)OCc2c1cc1n(c2=O)Cc2cc3c(CN(C)C)c(O)ccc3nc2-1.Cl` [MMV1633678]: the “% of growth inhibition, Mean” value is reported as -10.2%.
Then `CN(C)CC(=O)Nc1ccc2[nH]c(=O)c3ccccc3c2c1` [MMV1580480], with -3.9%; and `C=CCN(C(=O)OCc1ccc([N+](=O)[O-])cc1)C1CCN(CC[C@](C)(CN(C)S(=O)(=O)c2ccccc2)c2ccccc2)CC1` [MMV1782214], with 14.4%.
Then `O=C(NCCN1CCCCC1)c1cccc(C(F)(F)F)c1` [MMV1633964], with -2.0%; and `N#Cc1cc([N+](=O)[O-])ccc1Oc1ccccc1Cl` [MMV1580800], with -8.1%; and `CCc1oc2ccccc2c1C(=O)c1ccc(O)cc1` [MMV1578558], with -39.8%.
Then `O=S(=O)(NCB(O)O)c1cc2c(Cl)ccc(Cl)c2s1` [MMV1580841], with -42.4%; and `C[C@H]1COc2c(N3CCN(C)CC3)c(F)cc3c(=O)c(C(=O)O)cn1c23` [MMV687798], with -8.6%.
For `CC1(C)Cc2c(C#N)c(SCCc3ccccc3)nc(N3CCOCC3)c2CO1` [MMV1549626], the “% of growth inhibition, Mean” value is reported as -26.0%.
Then `CC(C)(C)c1ccc(Oc2ccc(N)cc2)cc1` [MMV1174026], with -12.8%; and `Nc1nc(C(F)(F)F)cc2c1[nH]c(=O)n2Cc1ccccc1` [MMV1634389], with 10.3%; and `Nc1cc(N)c2nc(-c3ccccc3)c(Nc3ccc(F)cc3)nc2c1` [MMV1581554], with -29.5%.
With `COc1ccc(OCc2ccc(COc3c(Cl)cccc3Cl)cc2)c(Cl)c1` [MMV1580485], the “% of growth inhibition, Mean” value is -2.8%.
Take `CC(=O)Oc1ccccc1C(=O)Nc1ncc([N+](=O)[O-])s1` [MMV688991]: the “% of growth inhibition, Mean” value is 5.4%.
Then `O=C(Cn1cnc2ccccc2c1=O)Nc1ccccc1` [MMV1578891], with -16.0%; and `CC(C)Oc1ccc(-n2cnc3cc(/C=C\c4ccc(C(C)(C)O)cc4)ccc32)cc1` [MMV1782350], with 26.5%; and `CCN(CC)CCn1c(=N)n(CC(O)COc2ccc(Cl)cc2Cl)c2ccccc21` (stereo not drawn) [MMV000725], with -27.5%.
Then `Cc1nc(N(C)C(=O)Cc2ccc(-c3ccccn3)cc2)sc1S(N)(=O)=O` [MMV1580486], with -4.4%.
Then `c1ccc(-c2nnc3c4ccccc4c(N4CCNCC4)nn23)cc1` [MMV1581551], with -11.4%.
For `O=C(CC1Sc2ncnn2C1=O)Nc1ccc(Br)cc1` (stereo not drawn) [MMV214956], the “% of growth inhibition, Mean” value is on record as -17.9%.
Then `O=C(O)c1sccc1S(=O)(=O)n1ccc2cc(Br)ccc21` [MMV1580855], with -1.0%; and `C[C@H](NC(CC(=O)c1ccccc1C(F)(F)F)C(=O)O)c1ccccc1` (stereo partly drawn) [MMV1579778], with -13.5%.
Then `O=C(N[C@H](Cc1cccc2ccccc12)C(=O)NCCc1c[nH]cn1)C1Cc2ccccc2C1` [MMV1782109], with -14.0%; and `CC(=O)N1CCN(c2ccc(OC[C@@H]3CO[C@@](Cn4ccnc4)(c4ccc(Cl)cc4Cl)O3)cc2)CC1` [MMV637533], with -5.2%; and `COC(=O)Nc1nc2cc(Sc3ccccc3)ccc2[nH]1` [MMV003143], with -14.1%.
As for `NNC(=O)c1ccncc1` [MMV002169], the “% of growth inhibition, Mean” value was -5.4%.
Then `Cc1ccc(NC(=O)c2cc(Cl)ccc2O)cc1` [MMV1578897], with -1.2%.
Then `CC1=C(/C=C/C(C)=C/C=C/C(C)=C/C(=O)Nc2ccc(O)cc2)C(C)(C)CCC1` [MMV001793], with -8.1%; and `CCC(C)n1ncn(-c2ccc(N3CCN(c4ccc(OCC5COC(Cn6cncn6)(c6ccc(Cl)cc6Cl)O5)cc4)CC3)cc2)c1=O` (stereo not drawn) [MMV637528], with -26.8%.
Turning to `NC(=O)c1nccn([C@@H]2O[C@H](CO)[C@@H](O)[C@H]2O)c1=O` [MMV1782104], the “% of growth inhibition, Mean” value is -4.9%.
